Laboratory results taken from patent US5942519A, “Prevention of precipitated acute urinary retention” (Merck & Co., Inc., priority 1998, dated 1999).

Columns and labels:
[1] = test system: precipitated acute urinary retention; experiment: Four-year double-blind, placebo-controlled study in men with BPH: precipitated acute urinary retention; format: in vivo, human
Protocol: A total of 3040 men with moderate to severe symptoms of BPH and enlarged prostates were treated with either finasteride (17β-(N-tert-butylcarbamoyl)-3-oxo-4-aza-5α-androst-1-en-3-one,5 mg daily) or placebo in a four year double-blind, placebo-controlled study. BPH-related outcomes were assessed every 4 months. Patients on alpha blockers, antiandrogens, with a history of chronic prostatitis, recurrent urinary tract infections, or prior prostate or bladder surgery were excluded. A total of 3016 patients randomized to treatment had efficacy data and were included in the analysis of precipitated acute urinary retention; 1513 in the finasteride group and 1503 in the placebo group.
The endpoint committee, blinded to treatment group, reviewed all study-related documents related to episodes of acute urinary retention to classify the episodes as spontaneous or precipitated by other factors. All acute urinary retentions were classified by the endpoint committee as being "clearly" BPH related ("spontaneous") if there was no clear precipitating event, such as surgery within 72 hours, a precipitating medical event (e.g. stroke), or ingestion of a medication thought to precipitate retention (e.g., pseudoephedrine hydrochloride), etc. The other episodes of acute urinary retention were classified as not "clearly" BPH related ("precipitated") since there was likely to be more than one factor (including BPH) involved that precipitated the event.
Acute urinary retention was analyzed using the log-rank test for time-to-first-event and corroborated with Fisher's exact test on the cumulative incidence.

[2] = test system: human type 2 enzyme (5α-reductase); settings: cited from earlier work
[3] = test system: BPH / spontaneous acute urinary retention; settings: patients with BPH; cited from earlier work

In the case of `CC(C)(C)NC(=O)[C@H]1CC[C@H]2[C@@H]3CC[C@H]4NC(=O)C=C[C@]4(C)[C@H]3CC[C@]12C` [finasteride, 17β-(N-tert-butylcarbamoyl)-3-oxo-4-aza-5α-androst-1-en-3-one], the “patients with an episode of precipitated acute urinary retention (percent)” value ([1]; 5 mg daily, 4-year study period, n=1513 finasteride, placebo 3.3%) is reported as 1.5%, the “patients with an episode of precipitated acute urinary retention (number)” value ([1]; 5 mg daily, 4-year study period, n=1513 finasteride, placebo 49 of 1503) is reported as 23 patients and the “reduction of the risk of having an episode of precipitated acute urinary retention” value ([1]; 5 mg daily, compared with placebo, over the 4-year study period) is reported as 52%. The “relative risk (hazard ratio) versus placebo, precipitated acute urinary retention” value ([1]; finasteride 5 mg daily versus placebo, 4-year study period) was 0.48, the “inhibition of the human type 2 enzyme (in words)” value [2] was “potent inhibitor of the human type 2 enzyme” and the “reducing spontaneous acute urinary retention (in words)” value [3] was “significantly reducing spontaneous acute urinary retention”. The “treating BPH (in words)” value [3] was “effective in treating BPH”.
